In article PMC11493283, “N^4-Hydroxycytidine/molnupiravir inhibits RNA virus-induced encephalitis by producing less fit mutated viruses” (PLOS Pathogens, 2024):

How the values were obtained:
LACV [1] = test: MPID-NGS mutation rate of LACV in cell culture; format: cell-based, La Crosse virus; details: Vero cells; RBV, FAV: increase only at 100 μM; NHC also in hNSCs and N2a
Description: (§1) Cells were seeded in 24-well plates (1 × 10^5 cells/well) and infected with LACV (0.1 MOI). At 1 hour post infection (hpi), medium was replaced with fresh medium containing 6 different concentrations for each of the drugs. RBV and FAV were tested at concentrations of 1, 3, 10, 30, 100, and 300 μM, while NHC was tested at concentrations of 0.1, 0.3, 1, 3, 10 and 30 μM. DMSO was used as vehicle control. At 24 hpi, the cell supernatant was harvested, centrifuged to eliminate cell debris and stored at −80 °C for sequencing (described below) and plaque assay following the method of Ojha et al. 2021 [32]. Quantified virus titers were plotted to represent antiviral efficacy. The EC50 (50% effective concentration representing a 50% reduction in virus titer) was determined by extrapolating a dose-response curve using GraphPad Prism 8 and 9.
We used a Primer ID (PID) library preparation approach with Illumina MiSeq next-generation sequencing (NGS) to examine the mutagenic effects of these drugs on viral RNA allowing deep coverage of the viral population while maintaining a low method error rate (1 in 10,000 nucleotides). We designed cDNA primers targeting a 372 bp region of the RdRp gene within the L segment (referred as L7 in the study), and included a second amplicon covering a 455 bp portion of the M segment (referred as M4 in the study). Each cDNA primer included a block of random nucleotides (11 bases long) as the Primer ID/unique molecular identifier (UMI). […] After gel purification/extraction of the PCR product (Qiagen MinElute Gel Extraction kit), the extracted libraries were quantified using a Qubit fluorimeter and subjected to Agilent TapeStation analysis. For each sequencing run, 24 quantified libraries were pooled for MiSeq 300 base paired-end sequencing at the UNC High Throughput Sequencing Facility. […] Each type of substitution rate was calculated against the wildtype sequence at the sequenced regions. The sequencing date were submitted to the National Center for Biotechnology Information (NCBI) Sequence Read Archive (SRA), accession number is PRJNA1092655.

LACV [2] = test: Antiviral efficacy against LACV in Vero cells, virus titer by plaque assay; format: cell-based; details: La Crosse virus, LACV 0.1 MOI, 24 hpi, read-out: EC50 (50% reduction in virus titer)
Description: as §1

LACV [3] = test: Antiviral efficacy against LACV in hNSCs, virus titer by plaque assay; format: cell-based; details: La Crosse virus, LACV 0.1 MOI, 24 hpi, read-out: EC50 (50% reduction in virus titer)
Description: as §1

Jamestown Canyon (JCV) = test: Antiviral efficacy against Jamestown Canyon virus in Vero cells, plaque assay; format: cell-based; details: 24 hpi, read-out: EC50 infectious virus production
Description: as §1
(§2) We also evaluated the ability of NHC to inhibit the replication of two other orthobunyaviruses, Cache Valley virus (CVV) and Jamestown Canyon (JCV). JCV belongs to the same serogroup as LACV but causes neurological disease in both children and adults. CVV is a member of the Bunyamwera serogroup and is the most common orthobunyavirus in the United States. Infections were done following the same protocol as for Fig 1. […] Thus, NHC inhibited virus replication for multiple orthobunyaviruses in different serogroups with similar potency.

LACV [4] = test: Serial passage of LACV in presence of NHC in Vero cells (resistance selection); format: cell-based, La Crosse virus; details: for EC50: La Crosse virus, Vero cells
Description: as §1
We used a digital scanner to scan the plaque assay plates. Digitized images were imported into FIJI/ImageJ v1.52n, and pixel calibration values were calculated based on the well diameter and corresponding digitized image. To quantify plaque size (surface area), wells with clearly isolated plaques were selected for segmentation and analysis. The image lookup table for each well was inverted followed by binarization prior to analysis, with a minimum area of 0.39 mm^2 to eliminate false positives due to slight variations in crystal violet staining. The measurements were imported into Microsoft Excel for data compilation, and graphed and analyzed using GraphPad Prism v9.3.1. Analysis of plaque size was done only when the plaque assays for different virus samples were done in parallel.
Vero cells were seeded at 5×10^5 cells/well in a 6-well plate for each passage. For the first passage, Vero cells were infected with LACV at MOIs of 10, 0.1, and 0.001 in 3 ml of medium, and treated with 0.1 μM of NHC or DMSO vehicle control. After 3 dpi, the virus inoculum was harvested from wells where more than 25% of cells were still attached to the well (using light microscopy). The harvested supernatants were centrifuged to clarify dead cells and then used to reinfect Vero cells at dilutions of 1:1,000, 1:100,000, and 1:10,000,000 and treated with 0.1 μM NHC for the first series of 5 passages where at each passage the culture with the highest dilution of virus that still gave rise to incomplete CPE (i.e. 25% of the cells still attached) was saved for the next passage. Second, third, and fourth series of 5 passages were treated with 0.2, 0.4 and 0.8 μM of NHC, respectively. After 20 passages in total, virus suspensions were collected, centrifuged, and frozen at −80°C to perform dose-dependent antiviral activity and plaque assays for virus titers (as described above).

Cache Valley virus (CVV) = test: Antiviral efficacy against Cache Valley virus in Vero cells, plaque assay; format: cell-based; details: 24 hpi, read-out: EC50 infectious virus production
Description: as §1, §2

LACV [5] = test: Antiviral efficacy against LACV in N2a cells, virus titer by plaque assay; format: cell-based; details: La Crosse virus, LACV 0.1 MOI, 24 hpi, read-out: EC50 (50% reduction in virus titer)
Description: as §1

in vitro = format: cell-based; details: MTT, 24h
Description: Method: Cells were seeded in 96-well plates (1-2x10^4 cells/well) after attachment different concentrations of each drug containing fresh media were added to each well, in triplicate. DMSO was used as a control. At 24h post-treatment, MTT assays were carried out according to the manufacturer’s instructions (Invitrogen, ThermoFisher Scientific). The absorbance was measured using the Synergy 4 cell plate reader (BioTek) at 540 nm. This assay was used to estimate the drug-induced cytotoxicity using the following formula: (sample absorbance/DMSO absorbance) × 100%. The CC50 (50% cytotoxic concentration) was determined by extrapolating the dose–response curve.

hNSCs = details: copied and converted to µM from µg/ml, ref not given; cited from earlier work
Vero cells = details: copied and converted to µM from µg/ml, ref not given; cited from earlier work

| Compound | mutation rate of LACV grown in presence of drug (LACV [1]) | EC50 (LACV [2]) [µM] | EC50 (LACV [3]) [µM] | EC50 (Jamestown Canyon (JCV)) [µM] | EC50 (LACV [4]; after 20 passages with 0.1 to 0.8 μM NHC, read-out: EC50 against NHC-selected LACV) [µM] | EC50 (LACV [4]; after 20 passages, read-out: EC50 against control (DMSO) passaged LACV) [µM] | supernatant virus titer at end of selection lower than control passaged virus (LACV [4]; passage 20) | average plaque size of virus passaged with NHC vs DMSO control (LACV [4]; passage 20 virus stocks) | EC50 (Cache Valley virus (CVV)) [µM] | EC50 (LACV [5]) [µM] | CC50 (in vitro; African green monkey, Vero cells) [µM] | CC50 (in vitro; human, hNSCs) [µM] | CC50 (hNSCs) [µM] | CC50 (Vero cells) [µM] |
| --- | --- | --- | --- | --- | --- | --- | --- | --- | --- | --- | --- | --- | --- | --- |
| O=c1nc(NO)ccn1[C@@H]1O[C@H](CO)[C@@H](O)[C@H]1O [NHC, N^4-hydroxycytidine] | dose-dependent relationship | 0.57 | 1.2 | 0.3 | 0.49 | 0.5 | approximately 15 fold | significantly smaller | 0.25 | 1.5 | 203 | 132 | – | – |
| NC(=O)c1nc(F)c[nH]c1=O [FAV, favipiravir] | did not see a significant increase in mutation rates | 58.3 | 206 | – | – | – | – | – | – | 30.1 | – | – | 1060 | 3340 |
